The source of these data is US20100003217A1, “Compounds and Pharmaceutical Compositions for the Treatment of Viral Infections” (priority 2008, published 2010).

Format in all cases: in vitro ADME
A short description of data set [1]: Incubation with rat liver cytosol. The following applies: rat cytosol 1 mg/mL, 2 hours, 10 μM. How it is done:
(§1) Pooled liver cytosol (1.0 mg protein/mL) suspended in incubation buffer (0.1 M potassium phosphate, pH 7.4) was incubated for 2 hours at 37° C. with 10 μM Compound 1 from a stock solution in DMSO (final DMSO concentration was 0.1%); reaction was initiated with the addition of test article. Incubations with no protein served as control. Reactions were terminated by the addition of 0.1 mL of stop solution (acetonitrile). The samples were vortex-mixed for 30 sec and then centrifuged at 10,000×g for 10 min. The supernatant was dried using a Labconco CentriVap concentrator and the dry residue reconstituted in water, transferred to an HPLC glass vial and analyzed by HPLC-UV method 2 (described above).
(§2) Metabolic stability of the proposed metabolites was conducted by incubating the chemically synthesized standards Compound 2, Compound 4 and Compound 3 as described above for Compound 1. When possible, formation of Compound 5 was verified by incubating samples with alkaline phosphatase (10 U) for 60 min at 37° C.

Data set [2] is described as follows: Incubation with human liver cytosol. The following applies: human cytosol 1 mg/mL, 2 hours, 10 μM. As for the experimental part:
as §1, §2

The nature of data set [3]: Stability in human liver microsomes. The following applies: for % Residual Compound 1 / % Residual Compound 2: human liver microsomes 1 mg/mL; for NADPH-dependent metabolism: human liver microsomes; for % Residual compound following incubation with liver microsomes: human microsomes 1 mg/mL; for % Residual Compound 2: 15 min. As for the experimental part: Disappearance of parent Compound 1 was used to evaluate the in vitro metabolism thereof. Relative levels of unchanged Compound 1 were measured by HPLC-UV method 1. Residual Compound 1 is reported as percent difference from time zero or control. The HPLC-UV system was as follows:
Incubations with liver microsomes or cytosol were conducted in a final volume of 0.1 mL per incubation time point. […] The microsomal reaction was initiated by the addition of NADPH (3 mM final concentration). Incubations with (a) no protein or (b) no NADPH served as controls. Reactions were terminated by the addition of 0.2 mL of stop solution (acetonitrile). The samples were vortex-mixed for 30 sec and then centrifuged at 10,000×g for 10 min. The supernatant was dried using a Labconco CentriVap concentrator and the dry residue reconstituted in water, transferred to an HPLC glass vial and analyzed by HPLC-UV method 1 (described above).
as §2

For the molecule `CC(C)(CO)C(=O)SCCOP(=O)(NCc1ccccc1)OC[C@H]1O[C@@H](n2cnc3c(=O)[nH]c(N)nc32)[C@](C)(O)[C@@H]1O` (mixture of isomers) [Compound 1, 3-hydroxy-2,2-dimethyl-thiopropionic acid S-(2-{[(2R,3R,4R,5R)-5-(2-amino-6-oxo-1,6-dihydro-purin-9-yl)-3,4-dihydroxy-4-methyl-tetrahydro-furan-2-ylmethoxy]-benzylamino-phosphoryloxy}-ethyl) ester], the “Residual compound following incubation with liver cytosol” value in data set [1] and in data set [2] was 100% each time. Moreover, the “% Residual Compound 1” value in data set [3] (10 μM, 0 min, NADPH) is 100%; in data set [3] (10 μM, 0 min, No Cofactor), 100%; in data set [3] (10 μM, 30 min, NADPH), 52%; in data set [3] (10 μM, 30 min, No Cofactor) it was 100%; in data set [3] (10 μM, 60 min, NADPH), 34%; in data set [3] (10 μM, 60 min, No Cofactor) it was 94%. Besides, the NADPH-dependent metabolism in data set [3] (NADPH, 60 min, 10 μM) is recorded as 66%.
Turning to `CC(C)(CO)C(=O)SCCOP(N)(=O)OC[C@H]1O[C@@H](n2cnc3c(=O)[nH]c(N)nc32)[C@](C)(O)[C@@H]1O` (mixture of isomers) [Compound 3, {9-[(2R)2-C-methyl-β-D-ribo-furanosyl]-guanin}-5′-yl-O-(hydroxy-tert-butyl-S-acyl-2-thioethyl) phosphoramidate], the figures for the “Residual compound following incubation with liver cytosol” value in data set [1] and in data set [2] were 96% and 100%, respectively. Further, the NADPH-dependent metabolism in data set [3] (60 min, 50 μM) is recorded as 20-30%. For the same molecule, the “% Residual compound following incubation with liver microsomes” value in data set [3] (60 min, 50 μM, NADPH) is 82%; in data set [3] (60 min, 50 μM, No Cofactor), 103%.
As for `C[C@@]1(O)[C@H](O)[C@@H](COP(=O)(O)NCc2ccccc2)O[C@H]1n1cnc2c(=O)[nH]c(N)nc21` [Compound 2, [(2R)-2-methyl-β-D-ribofuranosyl]guanine-N-benzylaminyl-5′-monophosphate], the “Residual compound following incubation with liver cytosol” value in data set [1] and in data set [2] was 0% each time. The “% Residual Compound 2” value in data set [3] (10 μM, NADPH) is 0%; in data set [3] (10 μM, No Cofactor), 0%.
